# Source: patent publication US10377783B2, “Methods and compounds for enhancing contrast in magnetic resonance imaging (MRI)” (priority 2015, dated 2019)
# Read-outs that look alike come from different tables or passages of the source.
# Tests used:
# [1] = cited from earlier work; for Clearance (route) / Clearance (time; half-life): in vivo; for uptake by hepatocytes: during excretion
# [2] = tested on: primary rat renal proximal tubule epithelial cells (RPTECs); experiment: In vitro toxicity, MTT assay; assay type: cell-based; settings: for IC50: rat RPTECs, MTT, read-out: Inhibitory concentration IC50; for cytotoxicity: 10 h time point, compared with 4 h
# Procedure: Gadodiamide (Selleckchem, Lot #02) was used as the reference compound. It is one of the 8 Gd(III)-based MRI agents approved for use in Canada (trade name: Omniscan™).
# The test articles and reference compound were weighed and dissolved in the incubation medium to give the highest test concentration of 30 mM. The solution was filter sterilized and diluted to the remaining test concentrations of 10 mM, 3.3 mM, 1.1 mM, 0.36 mM, 0.12 mM and 0.04 mM.
# Cryopreserved primary rat renal proximal tubule epithelial cells (RPTECs) (ScienCell Research Laboratories, Carlsbad, Calif.) were used for the study. The rat RPTECs were thawed completely at 37° C., and transferred to epithelial cell medium (ScienCell Research Laboratories, Carlsbad, Calif.) followed by plating in poly-L-lysine coated 96-well plates. The RPTECs were allowed to recover and grow in a cell culture incubator (37° C., humidified atmosphere of 5% carbon dioxide and 95% air) for 3 additional days with a medium change every alternate day.
# Following 3 days of plating, the RPTECs were washed once with serum free epithelial cell medium (ScienCell Research Laboratories, Carlsbad, Calif.) followed by treatment with the test, reference or control articles for 2, 4, 10 or 24 h. All treatments were performed in triplicate.
# Cellular viability and metabolic activity were assessed by using the 3-(4,5-dimethylthiazol-2-yl)-2,5-diphenyl tetrazolium bromide (MTT) uptake assay. A 10× stock of the MTT dye was prepared in phosphate buffered saline (PBS). An aliquot of dye was added 2 hrs before the intended time point to achieve a final 1× concentration, after which incubation (37° C., humidified atmosphere of 5% carbon dioxide and 95% air) continued until the desired time point. For the 2 hr time point, the aliquot of dye was added immediately after the test articles. Following incubation, all media was aspirated from the wells and the plates were allowed to dry. The resulting formazan crystals were dissolved in DMSO using an orbital shaker, and the absorbance at 570 nm was measured using a Victor ^3V multilabel plate reader (reference wavelength=650 nm).
# The inhibitory concentration (IC50, the concentration resulting in 50% toxicity) was determined by plotting log concentration vs. relative viability, followed by non-linear regression of the curve using Graph Pad Prism 5.0.
# An in vitro toxicity study was performed in order to evaluate the cytotoxic potential of several of the agents in primary rat renal proximal tubule epithelial cells (RPTECs), prior to performing in vivo studies. The Mn^II and Gd^III complexes of L1, L2 and L6 (complexes 1, 2, 5, and 7-9) were evaluated at seven concentrations (30 mM, 10 mM, 3.3 mM, 1.1 mM, 0.36 mM, 0.12 mM and 0.04 mM) after 2, 4, 10 and 24 hours of treatment in rat RPTECs. The MTT assay was used as an indicator of viability. The nephrotoxic potential of the test articles was compared to the toxicity observed in the presence of the approved agent Gadodiamide. The results are summarized in Table 4, where the inhibitory concentration (IC50, the concentration resulting in 50% toxicity) was determined by plotting log concentration vs. relative viability.
# [3] = Relaxivity measurements (T1 and T2 relaxation times, Bruker minispec mq60/mq20); assay type: physicochemical; settings: aqueous solution, 37° C.
# Procedure: T1 and T2 relaxation times were measured at the STTARR Innovation Centre in Toronto, Canada using a Bruker minispec mq60, and at the Bruker Showroom in Milton, Canada using a Bruker minispec mq20. Measurements were carried out on a series of 6 aqueous dilutions between 0-5 mM.
# The T1 and T2 relaxation times of the 8 soluble, pure complexes were measured in aqueous solution at 37° C., at both 20 and 60 MHz.
# serum albumin = serum albumin (Homo sapiens, UniProt P02768); settings: cited from earlier work
# Sequence of serum albumin (P02768 25-609): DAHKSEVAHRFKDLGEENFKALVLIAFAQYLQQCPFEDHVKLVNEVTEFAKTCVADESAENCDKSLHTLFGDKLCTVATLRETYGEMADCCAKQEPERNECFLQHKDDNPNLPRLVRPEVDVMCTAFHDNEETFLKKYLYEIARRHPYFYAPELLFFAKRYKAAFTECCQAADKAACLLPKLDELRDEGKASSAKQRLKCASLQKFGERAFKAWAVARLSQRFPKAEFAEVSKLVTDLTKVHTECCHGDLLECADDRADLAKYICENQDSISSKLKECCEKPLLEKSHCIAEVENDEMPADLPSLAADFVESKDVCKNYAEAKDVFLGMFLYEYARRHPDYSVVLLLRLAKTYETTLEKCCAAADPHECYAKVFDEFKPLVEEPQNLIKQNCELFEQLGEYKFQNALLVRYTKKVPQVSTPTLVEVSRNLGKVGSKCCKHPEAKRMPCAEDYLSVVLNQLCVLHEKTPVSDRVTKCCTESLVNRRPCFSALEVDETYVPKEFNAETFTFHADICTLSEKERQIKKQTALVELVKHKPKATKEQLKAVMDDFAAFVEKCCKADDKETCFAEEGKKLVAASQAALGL
compound,measurement,setting,value
"CC(O)CN1CCN(CC(=O)[O-])CCN(CC(=O)[O-])CCN(CC(=O)[O-])CC1.[Gd+3] (stereo not shown) [Prohance, gadoteridol]",Clearance (route),[1],renal
same,Clearance (time; half-life),[1],1.57 h
"CC1=Nc2ccccc2OCCOCCOc2ccccc2N=C(C)c2cccc1n2.O.O.[Cl-].[Cl-].[Mn+2] [Compound 5, [MnL6Cl2].2H2O]",IC50,[2]; 2 hr treatment,1250 µM
same,IC50,[2]; 4 hr treatment,670 µM
same,IC50,[2]; 10 hr treatment,1390 µM
same,cytotoxicity,[2],exhibited a slight reduction in toxicity
same,IC50,[2]; 24 hr treatment,210 µM
same,r1 relaxivity,[3]; 20 MHz,7.22 s⁻¹ mM⁻¹
same,r1 relaxivity,[3]; 60 MHz,2.97 s⁻¹ mM⁻¹
"CNC(=O)CN(CCN(CCN(CC(=O)[O-])CC(=O)NC)CC(=O)[O-])CC(=O)[O-].[Gd+3] [Gadodiamide, gadodiamide, reference compound]",nephrotoxicity,"[2]; 2 and 4 h of treatment, 0.04-30 mM",did not show significant nephrotoxicity
same,IC50,[2]; 10 hr treatment,> 30000 µM
same,cytotoxicity,[2],showed more toxicity than earlier time points
same,nephrotoxic effects,[2]; 24 h of treatment,exhibiting the least nephrotoxic effects
same,IC50,[2]; 24 hr treatment,31000 µM
same,Clearance (route),[1],renal
same,Clearance (time; half-life),[1],1.30 h
"COCCNC(=O)CN(CCN(CCN(CC(=O)[O-])CC(=O)NCCOC)CC(=O)[O-])CC(=O)[O-].[Gd+3] [OptiMARK, gadoversetamide]",Clearance (route),[1],renal
same,Clearance (time; half-life),[1],1.73 h
"O=C([O-])CN1CCN(CC(=O)[O-])CCN([C@H](CO)[C@H](O)CO)CCN(CC(=O)[O-])CC1.[Gd+3] (racemic) [Gadavist, gadobutrol]",Clearance (route),[1],renal
"CNC[C@H](O)[C@@H](O)[C@H](O)[C@H](O)CO.CNC[C@H](O)[C@@H](O)[C@H](O)[C@H](O)CO.O=C([O-])CN(CCN(CC(=O)[O-])CC(=O)O)CCN(CC(=O)O)C(COCc1ccccc1)C(=O)[O-].[Gd+3] (stereo not shown) [Multihance, gadobenate]",uptake by hepatocytes,[1],taken up by hepatocytes during excretion
same,Clearance (route),[1],renal/hepatic
same,Clearance (time; half-life),[1],1.2 to 2 h
"CC1=NCCNCCNCCN=C(C)c2cccc1n2.O.O.O.[Cl-].[Cl-].[Cl-].[Gd+3] [Compound 7, [GdL1Cl3].3H2O]",IC50,[2]; 2 hr treatment,8150 µM
same,IC50,[2]; 4 hr treatment,3370 µM
same,IC50,[2]; 10 hr treatment,8530 µM
same,cytotoxicity,[2],exhibited a slight reduction in toxicity
same,IC50,[2]; 24 hr treatment,920 µM
same,r1 relaxivity,[3]; 20 MHz,6.43 s⁻¹ mM⁻¹
same,r1 relaxivity,[3]; 60 MHz,5.58 s⁻¹ mM⁻¹
"O=C([O-])CN(CCN(CC(=O)[O-])C[C@H](COP(=O)([O-])OC1CCC(c2ccccc2)(c2ccccc2)CC1)N(CC(=O)[O-])CC(=O)[O-])CC(=O)[O-].[Gd+3].[H+].[H+].[H+] [Ablavar or Vasovist, gadofosveset]",binding to serum albumin,serum albumin,selectively binds to the blood protein serum albumin
same,Clearance (route),[1],renal/hepatic
same,Clearance (time; half-life),[1],18.5 h
"CCOc1ccc(CC(CN(CCN(CC(=O)[O-])CC(=O)[O-])CC(=O)[O-])N(CC(=O)[O-])CC(=O)[O-])cc1.[Gd+3].[Na+].[Na+] (stereo not shown) [Eovist or Primovist, gadoxetate]",uptake by hepatocytes,[1],taken up by hepatocytes during excretion
same,Clearance (route),[1],renal/hepatic
"CNC[C@H](O)[C@@H](O)[C@H](O)[C@H](O)CO.O=C([O-])CN1CCN(CC(=O)[O-])CCN(CC(=O)O)CCN(CC(=O)[O-])CC1.[Gd+3] [Dotarem, gadoterate]",Clearance (route),[1],renal
"O=C([O-])CN(CCN(CC(=O)[O-])CC(=O)O)CCN(CC(=O)[O-])CC(=O)O.[Gd+3] [Magnevist, gadopentetate]",Clearance (route),[1],renal
same,Clearance (time; half-life),[1],1.60 h
